Measured values reported in patent publication US5006554A, “Organotin compounds” (The United States of America as represented by the …, priority 1989, dated 1991).

Experiments:
[1] = Degradation in seawater protected from UV light at constant room temperature (half-life, GC MS); type: physicochemical; details: for stability in seawater relative to tributyltin bromide, absence of light: in words; for Half-life: protected from UV light, constant room temperature, estimated
Description: (§1) Degradation tests of the compounds included making ethanol solutions of the organotin bromides that were prepared at a concentration of approximately 1 mg/cm^3. Aliquots of the ethanol solutions were added to either 3.5% sodium bromide (NaBr) containing 1% acetone or to filtered seawater to obtain approximately 1-5 ppm concentrations in the seawater. The sodium bromide (NaBr) solution was placed in 125 cm^3 quartz tubes and exposed to sunlight over 48 h. The seawater solutions were kept in closed 500 cm^3 polycarbonate jars in the laboratory. Aliquots (10 cm^3) of the solutions were extracted at timed intervals with 1 cm^3 hexane after acidification with 0.1 cm^3 concentrated hydrochloric acid (HCl). Samples were analyzed by GC MS.
(§2) Half-lives of 33 days, 17 days and 16 days were estimated for tributyltin bromide, tri-3-butenyltin bromide and tri-1-butenyltin bromide in seawater, protected from UV light and held at a constant room temperature.

[2] = Stability and chemical reactivity of the butenyltin compounds (neat, in solvents, in reaction mixture); type: physicochemical; details: for stability / reactivity in the synthesis mixture: crude reaction mixture, synthesis side-products; for stability as neat compound and in inert solvents: inert solvents (also ethanol)
Description: Synthesis of the tetrabutenyltins presented no great difficulty as long as the Grignard reagent was present in large excess to assure complete alkylation. […] Under these conditions alkenyltin compounds were identified containing various numbers of […] groups in the mixture.
The other two tributenyltin bromides were stable as neat compounds, in inert solvents and in ethanol for a reasonable length of time. Chemical reactivity appeared to follow the order allyl > vinyl > alkyl.

[3] = Degradation on exposure to direct sunlight in quartz tubes (loss of compound after 48 h, GC MS); type: physicochemical; details: for loss of compound: exposure to direct sunlight, quartz tubes, seawater solutions, after 48 h; for stability in seawater relative to tributyltin bromide, presence of light: in words
Description: as §1, with “The sodium bromide (NaBr) solution was placed in 125 cm^3 quartz tubes and exposed to sunlight over 48 h. The seawater solutions were kept in closed 500 cm^3 polycarbonate jars in the laboratory.” left out
as §2

[4] = tested on: Photobacterium phosphoreum NRRL B-11177; test: Microtox toxicity bioassay: reduction in light output by a luminescent bacterium; type: cell-based; details: relative to tributyltin bromide, from EC50
Description: Relative toxicity of compounds was determined using a Microtox Toxicity Analyzer Model 2055, manufactured by Microbics Corporation, Carlsbad, Calif., USA. This bioassay measures the relative reduction in light output by a luminescent bacterium, Photobacterium phosphoreum NRRL B-11177, when exposed to a toxicant. The bacteria are provided in a convenient freeze-dried form by Microbics Corporation and are immediately activated by the addition of 1 cm^3 of distilled water.
For Microtox testing, stock solutions of the compounds were prepared in 95% ethanol at approximately 1-2 mg/cm^3 Appropriate amounts of the ethanol solutions were added to 2% aqueous sodium chloride (NaCl) to achieve a workable concentration while keeping the ethanol concentration as low as possible. Typically, the ethanol concentration was about 0.05%.
Serial dilutions of each compound for measurement were performed in the Microtox photometer/incubator at 15° C. Controls consist of triplicate 1 cm^3 portions of 2% sodium chloride and candidate toxics were prepared in and subsequently serially diluted in 2% sodium chloride, with a final volume of 1 cm^3 for each dilution. After a 5-minute period for temperature equilibration, 10 μl of rehydrated bacteria was added to each of the controls and the serial dilutions of the test compound. […]

Compound	stability in seawater relative to tributyltin bromide, absence of light [1]	Half-life [1] [days]	stability / reactivity in the synthesis mixture [2]	stability as neat compound and in inert solvents [2]	loss of compound [3]	stability in seawater relative to tributyltin bromide, presence of light [3]	factor by which less toxic than tributyltin bromide [4]	stability / reactivity in the synthesis mixture ([2]; listed as Tri-2-butenyltin bromide)	stability / reactivity in the synthesis mixture ([2]; listed as tri-2butenyltin bromide)	stability sufficient for degradation and toxicity determinations ([2]; in words)	order of chemical reactivity ([2]; allyl > vinyl > alkyl)
CCC=[CH][Sn]([Br])([CH]=CCC)[CH]=CCC [tri-1-butenyltin bromide]	less stable in seawater	16	tended spontaneously to form black precipitates during solvent evaporation of the crude mixture	stable as neat compounds and in inert solvents	about 80%	less stable in seawater	about three	–	–	–	–
CC=C[CH2][Sn]([Br])([CH2]C=CC)[CH2]C=CC [tri-2-butenyltin bromide]	–	–	–	–	–	–	–	so reactive with the synthesis side-products that it could not be isolated	highly reactive and therefore transient	too reactive for other than structural studies	–
C=CC[CH2][Sn]([Br])([CH2]CC=C)[CH2]CC=C [tri-3-butenyltin bromide]	less stable in seawater	17	tended spontaneously to form black precipitates during solvent evaporation of the crude mixture	stable as neat compounds and in inert solvents	~100%	less stable in seawater	six	–	–	–	fell between tri-1-butenyltin bromide, containing vinylic carbons, and tributyltin bromide, the alkyl compound
CCC[CH2][Sn]([Br])([CH2]CCC)[CH2]CCC [tributyltin bromide, reference compound]	–	33	–	–	about 15%	–	–	–	–	–	–
